Converted amounts (≈) assume the structure as drawn.
Experiments:
HT-29 = test: Cytotoxicity against human HT29 colon tumor cells; type: functional, cell-based
A549 = test: Cytotoxicity against human A549 lung tumor cells; type: functional, cell-based

Row | Structure (SMILES) | IC50 (HT-29) [µg/mL] | IC50 (A549) [µg/mL]
1 | CC(C)[C@]12O[C@H]1[C@@H]1O[C@@]13[C@@]1(C)CCC4=C(COC4=O)[C@@H]1C[C@@H]1O[C@@]13C2=O [TRIPTONIDE] | < 0.00046 | –
2 | CC(C)[C@]12O[C@H]1[C@@H]1O[C@]13[C@]1(O[C@H]1C[C@H]1C4=C(CC[C@@]13C)C(=O)OC4)[C@H]2OC(=S)n1ccnc1 | 0.88 (≈ 1.87 µM) | 5 (≈ 10.6 µM)
3 | CC(C)[C@]12O[C@H]1[C@]13O[C@H]1C[C@H]1C4=C(CC[C@]1(C)[C@@]31O[C@H]1[C@@H]2O)C(=O)OC4 | 0.15 (≈ 0.416 µM) | 0.27 (≈ 0.749 µM)
4 | CC(C)C1=C[C@]23O[C@H]2C[C@H]2C4=C(CC[C@]2(C)[C@@]32O[C@H]2C1=O)C(=O)OC4 | 0.67 (≈ 1.96 µM) | 1.2 (≈ 3.5 µM)
5 | CC(C)[C@]12O[C@H]1[C@@H]1O[C@]13[C@]1(O[C@H]1C[C@H]1C4=C(CC[C@@]13C)C(=O)OC4)[C@@H]2OC(=S)n1ccnc1 | 0.004 (≈ 0.0085 µM) | 0.024 (≈ 0.051 µM)
6 | CC(C)[C@]12O[C@H]1[C@]13O[C@H]1C[C@H]1C4=C(CC[C@]1(C)[C@@]31O[C@H]1C2=O)C(=O)OC4 | 0.7 (≈ 1.95 µM) | 0.85 (≈ 2.37 µM)
7 | CC(C)[C@]12O[C@H]1[C@]13O[C@H]1C[C@H]1C4=C(CC[C@]1(C)[C@@]31O[C@H]1[C@H]2O)C(=O)OC4 | > 10 | > 10

Reference: ChEMBL document CHEMBL1146928, “Semisynthesis of C-ring modified triptolide analogues and their cytotoxic activities” (Bioorg Med Chem Lett, 2006)
